# Assay results: US11478466B2, “Small molecule promoting osteoblast differentiation” (Cornell University, priority 2019, dated 2022)
# Key:
# Format in all cases: cell-based, mouse
# [1] = system: p38-α; assay: Isoform-specific immunoprecipitation, p38-α activity in C2C12 cells; conditions: C2C12, 10 μM DIPQUO
# Description: (§1) There are four separate p38 isoforms: α, β, γ, and δ. The respective roles of the α and β isoforms in bone differentiation have been dissected to the extent that p38-β is known to be involved specifically in skeletogenesis (Greenblatt et al., 2010), while p38-α has roles that are both wide-ranging and highly specific, for instance in dentition (Greenblatt et al., 2015). Accordingly, we used small interfering RNA-mediated knockdown to probe the specificity of DIPQUO to block the activity of one or the other isoform (FIG. 6E). […] To confirm the biological significance of this observation, the α and β isoforms were immunoprecipitated from C2C12 cells and analyzed for relative activity levels.
# [2] = system: alkaline phosphatase (ALP); assay: ALP expression staining in C2C12 cells; conditions: C2C12, 2 days, 10 μM
# Protocol: C2C12 cells were treated for 2 days with 10 μM DIPQUO or structural analogs, 1 ng/ml rhBMP4, or with inhibitors as noted in figure legends, and then fixed briefly in 70% acetone/10% formaldehyde/20% citrate. Staining was achieved using the leukocyte alkaline phosphatase kit (Sigma 86R-1KT) according to the manufacturer's instructions. Expression of ALP was confirmed and quantified by flow cytometric analysis, using an Accuri C6 flow cytometer. Briefly, control- or DIPQUO-treated C2C12 cells were detached and harvested on day 2 using PBS-based enzyme-free cell detachment solution (ThermoFisher). 2×10^5 cells were incubated on ice for 30 minutes with 10 μl APC-conjugated ALPL antibody (R&D Systems), and washed in ice-cold PBS before analysis. Live cells were gated and analyzed in CFlow Plus software and then data was converted to FlowJo to achieve publication-level resolution. For siRNA experiments, gene-specific oligonucleotides were obtained for mouse p38-alpha (Cell Signaling) and p38-beta (Santa Cruz). Signal Silence scramble siRNA control oligonucleotide was purchased from Cell Signaling. C2C12 cells at 70% confluency were transfected in 12-well plates using Lipofectamine RNAiMax reagent (Invitrogen) according to manufacturer's instructions. Transfected cells were treated 24 hours later with DMSO or 10 μM DIPQUO, and siRNA transfection was repeated after 48 hours without changing culture media. After an additional 3 days, cells were either fixed and stained for ALP expression or analyzed for ALP activity using the AttoPhos Substrate kit. Hemagglutinin and FLAG epitope-tagged MKK3 (pMT2-HA-MKK3) and MKK6 (pcDNA3-FLAG-MKK6) constructs were obtained from Addgene and transfected into C2C12 cells using Lipofectamine LTX with Plus Reagent (ThermoFisher) according to manufacturer's instructions and cell extracts analyzed for protein expression and activity as described below.
# [3] = system: C2C12 cells; assay: C2C12 culture morphology and survival under treatment; set-up: effect of continued treatment on C2C12 culture: dose or concentration left out as unconfirmed
# [4] = system: RAW 264.7 murine macrophage cell line; assay: Osteoclast differentiation (TRAP staining, qRT-PCR) in RAW 264.7 cells
# Protocol: To address the specificity of DIPQUO for stimulating an osteogenic versus osteoclastic program, the RAW 264.7 murine macrophage cell line was assayed for osteoclast differentiation by staining for tartrate-resistant acid phosphatase (TRAP) to distinguish multinucleated osteoclasts from macrophages. […] Thus, DIPQUO appears to be primarily supportive of osteogenesis.
# The RAW 264.7 macrophage cell line was purchased from ATCC and maintained in DMEM with 10% FBS. Cells were treated with 10 μM DIPQUO or 50 ng/ml RANKL (Sigma) for 4 days. Cells were fixed in 70% acetone/10% formaldehyde/20% citrate and TRAP staining was achieved using the Leukocyte Acid Phosphatase kit (Sigma 387A-1KT).
# For quantitative RT-PCR analysis of gene expression in C2C12 cultures, cells were treated for 2 days with 10 μM DIPQUO and harvested into Trizol reagent (Invitrogen). One microgram of RNA was reverse transcribed using the VILO-RT kit (Invitrogen) to generate cDNA, which was diluted 1:25 in RNase-free H2O for qPCR with Sybr green using the Roche 480 II LightCycler and the 2^−ΔΔCT method (Livak and Schmittgen, 2001). For analysis of osteoclast gene expression, RAW 264.7 cells were treated with DMSO, 50 ng/ml RANKL, or 10 μM DIPQUO for 4 days, then harvested into Trizol reagent and processed as above. Mouse qPCR primers are as follows. Runx2: F([…]) (SEQ ID NO:1); R([…]) (SEQ ID NO:2); Dlx5: F([…]) (SEQ ID NO:3); R([…]) (SEQ ID NO:4); Osterix: F([…]) (SEQ ID NO:5); R([…]) (SEQ ID NO:6); ALP: F([…]) (SEQ ID NO:7); R([…]) (SEQ ID NO:8); Osteocalcin: F([…]) (SEQ ID NO:9); R([…]) (SEQ ID NO:10); Osteoactivin: F([…]) (SEQ ID NO:11); R([…]) (SEQ ID NO:12); CTSK: F([…]) (SEQ ID NO:13); R([…]) (SEQ ID NO:14); MMP9: F([…]) (SEQ ID NO:15); R([…]) (SEQ ID NO:16); Gapdh F([…]) (SEQ ID NO:17); R([…]) (SEQ ID NO:18). RNA-seq studies were carried out with the assistance of the Weill Cornell Genomics Core Facility, using the Illumina HiSeq4000 next-generation sequencer to generate reads from cDNA libraries generated from three biological replicates of day 2 DMSO- or DIPQUO-treated C2C12 cells. […]
# [5] = system: p38-β; assay: Isoform-specific immunoprecipitation, p38-β activity in C2C12 cells; conditions: C2C12, 10 μM DIPQUO
# Description: as §1
compound,measurement,setting,value
"Cc1cc(C)c2[nH]c(=O)c(-c3[nH]cnc3-c3ccccc3)cc2c1 [RU-0226606, 6,8-dimethyl-3-(4-phenyl-1H-imidazol-5-yl)quinolin-2(1H)-one]",p38-α isoform activity after immunoprecipitation,[1],suppressed
same,ALP expression by staining,[2],rapidly stimulate ALP expression within 2 days
same,cellular morphology,[3]; C2C12,rapid rearrangement of cellular architecture from fibroblast-like to a cuboidal phenotype
same,effect of continued treatment on C2C12 culture,"[3]; continued treatment, partially rescued by IGF-1",attrition of the C2C12 culture
same,expression of CTSK and MMP9 (qRT-PCR),"[4]; RAW 264.7, 10 μM, 4 days","upregulated, albeit to a lower level compared with RANKL induction"
same,TRAP staining of multinucleated osteoclasts,"[4]; RAW 264.7, 4 days, DIPQUO 10 μM, RANKL 50 ng/ml",comparatively few TRAP-positive cells
same,p38-β isoform activity after immunoprecipitation,[5],significantly activated
